This is an account of results in ChEMBL document CHEMBL1201862, “PubChem BioAssay data set” (2004).

The target of assay [1] is T1, Sentrin-specific protease 8 (Homo sapiens, UniProt Q96LD8).
T1 sequence (Q96LD8 whole entry): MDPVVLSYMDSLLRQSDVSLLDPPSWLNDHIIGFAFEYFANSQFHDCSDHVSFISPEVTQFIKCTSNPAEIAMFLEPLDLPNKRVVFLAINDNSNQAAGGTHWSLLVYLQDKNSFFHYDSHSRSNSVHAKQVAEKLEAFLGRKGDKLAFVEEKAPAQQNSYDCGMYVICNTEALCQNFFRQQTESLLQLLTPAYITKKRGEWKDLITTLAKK
It is filed as functional.

The target of assay [2] is T2, Polyadenylate-binding protein 1 (Homo sapiens, UniProt P11940). Kind of assay: PABP1 MLLE–PAM2 binding inhibitor potency, dose response, biochemical, fluorescence polarization, FITC-PAM2 peptide (AID 602259). It is filed as functional. The conditions noted are these: read-out: IC50_Mean. (Polarisation of emitted light reports the rotation of a fluorescent probe.)
T2 sequence (P11940 whole entry): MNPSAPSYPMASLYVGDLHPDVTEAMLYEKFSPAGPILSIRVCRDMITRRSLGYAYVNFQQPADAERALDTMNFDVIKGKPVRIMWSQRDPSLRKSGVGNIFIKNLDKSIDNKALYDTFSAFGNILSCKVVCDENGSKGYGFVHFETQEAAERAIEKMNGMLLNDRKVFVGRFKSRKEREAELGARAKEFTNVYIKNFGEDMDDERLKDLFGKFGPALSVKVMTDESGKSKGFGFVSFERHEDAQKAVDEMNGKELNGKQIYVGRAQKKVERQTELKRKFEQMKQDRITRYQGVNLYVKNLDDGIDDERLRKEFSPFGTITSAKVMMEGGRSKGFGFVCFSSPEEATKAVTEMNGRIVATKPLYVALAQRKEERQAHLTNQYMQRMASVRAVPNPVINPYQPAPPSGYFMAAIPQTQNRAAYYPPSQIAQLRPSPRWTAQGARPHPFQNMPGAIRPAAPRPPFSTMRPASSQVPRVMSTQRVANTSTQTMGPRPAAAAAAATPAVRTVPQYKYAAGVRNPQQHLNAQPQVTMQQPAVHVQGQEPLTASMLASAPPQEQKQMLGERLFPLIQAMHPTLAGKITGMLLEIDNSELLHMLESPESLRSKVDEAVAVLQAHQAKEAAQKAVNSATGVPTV
The target of assay [3] is T2, Polyadenylate-binding protein 1. Kind of assay: PABP1 MLLE–PAM2 interaction inhibitors, dose response, miRNA deadenylation inhibitor project, biochemical, fluorescence polarization, Cy5-PAM2 peptide, secondary (AID 602260). Type of assay: functional. The conditions noted are these: read-out: IC50_Mean.
In assay [4] the target is T3, Mannose-6-phosphate isomerase (Homo sapiens, UniProt P34949).
T3 sequence (P34949 whole entry): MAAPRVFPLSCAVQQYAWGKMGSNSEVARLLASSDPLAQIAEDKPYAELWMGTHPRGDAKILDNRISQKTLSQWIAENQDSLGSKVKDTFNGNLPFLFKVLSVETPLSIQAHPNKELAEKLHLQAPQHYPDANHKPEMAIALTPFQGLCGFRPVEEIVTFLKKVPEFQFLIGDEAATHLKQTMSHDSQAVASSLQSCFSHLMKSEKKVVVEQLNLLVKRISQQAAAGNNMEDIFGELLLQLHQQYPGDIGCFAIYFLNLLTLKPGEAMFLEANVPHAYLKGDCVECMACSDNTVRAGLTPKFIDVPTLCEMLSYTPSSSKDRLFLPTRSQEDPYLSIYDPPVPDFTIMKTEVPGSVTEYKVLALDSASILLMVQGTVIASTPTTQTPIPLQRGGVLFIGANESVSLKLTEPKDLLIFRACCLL
The assay can be described thus: human PMI inhibitors, high substrate, primary screen, biochemical, fluorescence intensity, high mannose 6-phosphate (AID 1220).

In assay [5] the target is T4, Caspase-3 (Homo sapiens, UniProt P42574).
T4 sequence (P42574 whole entry): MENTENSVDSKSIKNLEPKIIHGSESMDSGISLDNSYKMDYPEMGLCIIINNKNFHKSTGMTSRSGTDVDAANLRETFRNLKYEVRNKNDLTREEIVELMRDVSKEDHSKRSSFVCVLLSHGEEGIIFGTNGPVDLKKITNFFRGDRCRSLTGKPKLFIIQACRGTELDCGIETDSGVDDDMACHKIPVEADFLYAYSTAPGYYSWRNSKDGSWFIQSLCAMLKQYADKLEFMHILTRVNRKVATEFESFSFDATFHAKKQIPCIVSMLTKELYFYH
Kind of assay: SAR Analysis of small molecule inhibitors of Sentrin-specific proteases (SENPs) using a Caspase-3 Selectivity assay. [Related pubchem assays (depositor defined):AID2540, AID2599, AID434973, AID489001]. It is filed as functional.

Assay [6] has as its target Dual specificity tyrosine-phosphorylation-regulated kinase 1A (Rattus norvegicus, UniProt Q63470). It is filed as biochemical, Homo sapiens.
The target of assay [7] is T5, Sentrin-specific protease 7 (Homo sapiens, UniProt Q9BQF6).
T5 sequence (Q9BQF6 whole entry): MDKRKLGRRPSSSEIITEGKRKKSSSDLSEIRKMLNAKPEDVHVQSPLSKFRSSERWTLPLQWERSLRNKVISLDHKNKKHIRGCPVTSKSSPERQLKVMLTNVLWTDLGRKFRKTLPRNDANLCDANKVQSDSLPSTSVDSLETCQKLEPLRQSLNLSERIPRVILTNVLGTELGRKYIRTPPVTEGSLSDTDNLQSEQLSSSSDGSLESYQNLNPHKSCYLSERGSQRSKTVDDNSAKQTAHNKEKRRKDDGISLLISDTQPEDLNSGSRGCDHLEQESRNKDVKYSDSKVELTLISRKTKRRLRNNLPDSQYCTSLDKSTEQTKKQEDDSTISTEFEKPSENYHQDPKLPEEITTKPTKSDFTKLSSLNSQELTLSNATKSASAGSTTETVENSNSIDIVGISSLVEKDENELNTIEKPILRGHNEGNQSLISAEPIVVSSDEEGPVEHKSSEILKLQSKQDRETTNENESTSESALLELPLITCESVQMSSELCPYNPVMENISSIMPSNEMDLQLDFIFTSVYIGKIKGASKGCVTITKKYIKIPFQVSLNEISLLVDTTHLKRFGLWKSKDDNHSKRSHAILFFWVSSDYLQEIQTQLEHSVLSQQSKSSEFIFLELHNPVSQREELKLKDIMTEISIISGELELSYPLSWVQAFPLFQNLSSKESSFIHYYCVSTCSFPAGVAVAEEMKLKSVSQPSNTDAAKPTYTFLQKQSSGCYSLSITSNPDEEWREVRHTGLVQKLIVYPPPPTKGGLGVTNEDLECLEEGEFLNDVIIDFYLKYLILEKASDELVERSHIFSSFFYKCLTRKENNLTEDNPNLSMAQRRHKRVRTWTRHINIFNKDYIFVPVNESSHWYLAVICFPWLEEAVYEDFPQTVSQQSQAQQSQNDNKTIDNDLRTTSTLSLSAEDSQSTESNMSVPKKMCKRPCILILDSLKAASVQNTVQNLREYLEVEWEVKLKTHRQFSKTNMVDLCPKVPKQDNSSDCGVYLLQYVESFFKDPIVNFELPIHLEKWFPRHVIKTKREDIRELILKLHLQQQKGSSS
Type of assay: functional.

Assay [8] concerns the target T6, Sentrin-specific protease 6 (Homo sapiens, UniProt Q9GZR1).
T6 sequence (Q9GZR1 whole entry): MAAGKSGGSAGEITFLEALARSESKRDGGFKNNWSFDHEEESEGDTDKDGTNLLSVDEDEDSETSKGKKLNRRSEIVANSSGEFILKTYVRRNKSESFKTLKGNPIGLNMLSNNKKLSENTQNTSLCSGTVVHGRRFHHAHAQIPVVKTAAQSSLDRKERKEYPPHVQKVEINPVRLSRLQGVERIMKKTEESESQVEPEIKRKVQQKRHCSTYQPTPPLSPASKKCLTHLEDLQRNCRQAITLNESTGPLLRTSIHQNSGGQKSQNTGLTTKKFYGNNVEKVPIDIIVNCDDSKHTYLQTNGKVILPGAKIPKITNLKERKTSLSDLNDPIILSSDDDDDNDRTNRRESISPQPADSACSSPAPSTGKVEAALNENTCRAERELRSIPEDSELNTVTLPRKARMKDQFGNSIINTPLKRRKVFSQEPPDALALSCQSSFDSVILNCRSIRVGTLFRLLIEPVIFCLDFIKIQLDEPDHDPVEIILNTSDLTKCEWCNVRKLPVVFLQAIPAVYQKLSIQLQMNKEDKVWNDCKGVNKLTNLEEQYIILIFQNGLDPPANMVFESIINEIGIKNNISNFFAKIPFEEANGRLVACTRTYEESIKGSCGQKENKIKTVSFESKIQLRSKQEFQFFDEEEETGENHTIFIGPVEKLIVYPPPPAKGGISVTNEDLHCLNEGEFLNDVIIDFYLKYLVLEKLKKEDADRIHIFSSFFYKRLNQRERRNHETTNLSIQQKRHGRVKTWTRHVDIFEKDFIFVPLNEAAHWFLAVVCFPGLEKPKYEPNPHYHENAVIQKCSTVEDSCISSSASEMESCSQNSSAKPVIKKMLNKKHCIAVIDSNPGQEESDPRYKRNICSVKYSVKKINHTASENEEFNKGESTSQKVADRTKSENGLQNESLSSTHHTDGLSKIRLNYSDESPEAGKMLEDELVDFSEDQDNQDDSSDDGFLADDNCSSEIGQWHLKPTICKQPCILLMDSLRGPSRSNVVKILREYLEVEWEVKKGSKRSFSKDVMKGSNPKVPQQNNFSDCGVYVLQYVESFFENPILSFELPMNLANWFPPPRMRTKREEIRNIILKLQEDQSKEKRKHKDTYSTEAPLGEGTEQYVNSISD
The assay can be described thus: SAR Analysis of small molecule inhibitors of Sentrin-specific protease 6 (SENP6) using a Luminescent assay. [Related pubchem assays (depositor defined):AID2582, AID2599]. It is filed as functional.

In assay [9] the target is T4, Caspase-3. Type of assay: functional.
Assay [10] has as its target T6, Sentrin-specific protease 6. Type of assay: functional.
The target of assay [11] is T1, Sentrin-specific protease 8. The assay can be described thus: SENP8 protease inhibitors, SAR follow-up, biochemical, luminescence (AID 504501). It is filed as functional.
For assay [12], the target named is T5, Sentrin-specific protease 7. Kind of assay: SENP7 protease inhibitors, SAR follow-up, biochemical, luminescence (AID 504497). It is filed as functional.
The next assay deals with Genome polyprotein (dengue virus type 2, UniProt P29990). The assay can be described thus: Dengue-2 NS5 methyltransferase inhibitors, primary screen, biochemical, confirmation dose response (AID 588689). Type of assay: functional.
Sequence of Genome polyprotein (P29990 2492-3391 limits assumed): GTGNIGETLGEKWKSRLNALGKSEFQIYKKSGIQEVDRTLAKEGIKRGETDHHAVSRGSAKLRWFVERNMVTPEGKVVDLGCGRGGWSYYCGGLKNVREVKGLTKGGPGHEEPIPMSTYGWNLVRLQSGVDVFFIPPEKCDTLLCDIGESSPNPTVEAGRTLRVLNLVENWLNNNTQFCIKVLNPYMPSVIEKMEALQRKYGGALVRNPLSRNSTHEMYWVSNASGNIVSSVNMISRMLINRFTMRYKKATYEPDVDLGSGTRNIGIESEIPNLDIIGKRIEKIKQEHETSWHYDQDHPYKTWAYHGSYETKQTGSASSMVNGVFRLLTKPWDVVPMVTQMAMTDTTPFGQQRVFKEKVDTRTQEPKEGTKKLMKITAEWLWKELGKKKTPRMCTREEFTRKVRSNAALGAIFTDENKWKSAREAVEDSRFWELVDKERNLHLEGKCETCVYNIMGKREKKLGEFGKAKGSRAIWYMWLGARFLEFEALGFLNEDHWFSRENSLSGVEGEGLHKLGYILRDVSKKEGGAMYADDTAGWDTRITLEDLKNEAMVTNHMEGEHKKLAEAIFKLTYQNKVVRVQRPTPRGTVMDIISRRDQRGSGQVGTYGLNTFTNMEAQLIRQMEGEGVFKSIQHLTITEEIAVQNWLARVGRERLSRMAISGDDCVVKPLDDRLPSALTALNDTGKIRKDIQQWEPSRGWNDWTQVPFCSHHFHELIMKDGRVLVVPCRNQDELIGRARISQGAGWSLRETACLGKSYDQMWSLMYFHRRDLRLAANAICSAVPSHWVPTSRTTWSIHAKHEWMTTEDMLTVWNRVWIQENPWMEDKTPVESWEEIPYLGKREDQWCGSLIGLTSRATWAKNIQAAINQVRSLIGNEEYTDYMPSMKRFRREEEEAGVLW
The nature of assay [13]: activation of PKA-R1A holoenzyme dissociation, dose response, counter-screen for PKA-R2B activator project, biochemical, Cy5-IP20 fluorescence polarization, 1536-well, triplicate (AID 504896). (A counterscreen serves to expose hits that act by an unwanted route or on another target.)
Assay [14] is described as follows: Fluorescence polarization-based biochemical high throughput dose response assay for activators of the Protein Kinase A-R2B (PKA-R2B) complex. [Related pubchem assays (depositor defined):AID504700, AID504704, AID504796, AID504797].
A further assay concerns the target T7, Bcl-2-like protein 10 (Homo sapiens, UniProt Q9HD36).
T7 sequence (Q9HD36 whole entry): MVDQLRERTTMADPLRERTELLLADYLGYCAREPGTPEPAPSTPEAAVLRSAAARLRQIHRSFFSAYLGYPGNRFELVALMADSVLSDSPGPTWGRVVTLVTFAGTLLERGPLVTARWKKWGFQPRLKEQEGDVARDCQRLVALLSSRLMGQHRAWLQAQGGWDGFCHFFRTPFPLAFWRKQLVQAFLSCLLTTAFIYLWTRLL
Kind of assay: Isothermal titration calorimetry (ITC) with Bcl-B and compounds active in primary screen. [Related pubchem assays (depositor defined):AID1693]. Type of assay: functional. Background: Isothermal titration calorimetry measures the heat released or taken up as one component is titrated into another.

The test system of a further assay is Streptococcus. The assay can be described thus: Group A Streptococcus viability loss, dose response, counter-screen for streptokinase expression inhibitor project, luminescence, BacTiterGlo (AID 1915).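 Also: potency for reduction of bacterial viability or growth.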 It is filed as functional, organism-based.
The subject of assay [15] is Streptococcus sp. 'group A'. Kind of assay: growth inhibition of control SK(-) GAS strain, dose response, counter-screen for streptokinase expression inhibitor project, luminescence, kanamycin, BacTiterGlo, confirmation (AID 1900). Type of assay: functional, organism-based.
For a further assay, the target named is T8, Streptokinase A (Streptococcus pyogenes serotype M1, UniProt P10520).
T8 sequence (P10520 whole entry): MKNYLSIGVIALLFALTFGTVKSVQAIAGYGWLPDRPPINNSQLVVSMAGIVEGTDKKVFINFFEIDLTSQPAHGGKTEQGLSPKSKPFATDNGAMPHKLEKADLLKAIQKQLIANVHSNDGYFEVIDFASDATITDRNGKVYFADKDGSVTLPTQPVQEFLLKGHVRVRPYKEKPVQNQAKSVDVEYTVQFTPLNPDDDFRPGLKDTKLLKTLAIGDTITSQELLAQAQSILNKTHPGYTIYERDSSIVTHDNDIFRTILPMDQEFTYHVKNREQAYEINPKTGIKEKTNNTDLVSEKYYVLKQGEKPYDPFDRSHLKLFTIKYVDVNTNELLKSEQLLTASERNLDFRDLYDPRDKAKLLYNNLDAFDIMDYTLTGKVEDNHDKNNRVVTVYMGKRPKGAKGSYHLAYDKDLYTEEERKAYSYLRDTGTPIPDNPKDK
Kind of assay: S. pyogenes streptokinase expression inhibitors, potency, dose response, plasminogen activation absorbance, OD405 (AID 1914).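 Also: secreted streptokinase activity via plasminogen activation per viability signal from cell pellet.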 It is filed as functional, Streptococcus pyogenes M1 GAS.

The target in assay [16] is Dual specificity protein kinase CLK1 (Homo sapiens, UniProt P49759). Kind of assay: CLK1 kinase inhibitors, off-target check, dose response, selectivity assay for Dyrk1A inhibitor project, biochemical, cherry-picked samples (AID 588811).
Sequence of Dual specificity protein kinase CLK1 (P49759 whole entry): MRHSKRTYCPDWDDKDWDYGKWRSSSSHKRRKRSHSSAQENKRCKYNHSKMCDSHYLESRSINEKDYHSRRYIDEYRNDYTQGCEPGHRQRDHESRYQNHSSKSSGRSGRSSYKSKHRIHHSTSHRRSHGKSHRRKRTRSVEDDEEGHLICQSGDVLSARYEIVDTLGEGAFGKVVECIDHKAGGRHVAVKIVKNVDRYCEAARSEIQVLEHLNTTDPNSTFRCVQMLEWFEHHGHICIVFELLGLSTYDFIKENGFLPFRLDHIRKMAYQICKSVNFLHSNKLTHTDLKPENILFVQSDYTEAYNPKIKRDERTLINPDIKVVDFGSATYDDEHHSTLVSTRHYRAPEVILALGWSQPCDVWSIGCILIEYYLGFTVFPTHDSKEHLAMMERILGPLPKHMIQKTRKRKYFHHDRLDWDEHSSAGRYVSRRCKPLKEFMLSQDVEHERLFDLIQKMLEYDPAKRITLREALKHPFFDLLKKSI

Broadly, the AC50 is the midpoint of the concentration-response curve, whichever way the signal moves. The term EC50 denotes the concentration needed to bring the measured effect to its halfway point.

Each structure is given as a SMILES string. Activity calls are given as the source filed them.

As to `COc1ccc2c(C#N)c3ccccn3c2c1`, the IC50 was > 100 µM (inactive) in assay [1]; 21.2 µM (inactive) in assay [2]; > 66 µM (inactive) in [3]; > 50 µM (not active) in assay [4]; 65.4 µM (active) at Caspase-3 [5]; > 100 µM (inactive) in assay [7]. The IC50 in assay [8] was > 99 µM (inactive); at Caspase-3 [9], 54.8 µM (active); in assay [10], 16.6 µM (active); in assay [11], > 99 µM (inactive); in assay [12] it was > 99 µM (inactive). For the same compound, the AC50 in assay [6] was 0.242 µM (active).
For `CN(C)c1ccc(N=Nc2ccc(S(=O)(=O)O)cc2)c2ccccc12`, the IC50 at Genome polyprotein is 46.2 µM (active). Also, the EC50 in assay [13] is > 114 µM (inactive); in assay [14] it was 69 µM (inactive).
As for `O=c1c2c(n3nnnc3n1Cc1ccccc1)-c1ccccc1CC21CCCC1`, at Bcl-2-like protein 10, the IC50 was 0.2 µM (active). Further, the concentration for a half-maximal effect (EC50) with Streptococcus was > 150 µM (not active); in assay [15], 26.3 µM (active); on Streptokinase A, 6.74 µM (active).
As to `CSCC(=O)Nc1nc(-c2ccc3c(c2)OCCO3)cs1`, the half-maximal activity concentration (AC50) in assay [16] is 8.63 µM (active).
